Several values for one entry are separate records, joined by “and”; a condition that tells them apart may be missing. Identical values can stand only once. Like-named read-outs stand apart in the source and are kept apart here.
What was measured:
[1] = target: T1, P450 3A5 (Homo sapiens, UniProt P20815); assay: Type 1 spectral shift equilibrium binding to P450 3A5; conditions: for concentration dependence of type 1 spectral shift (shape of binding curve): 3A5 binding isotherm; for ΔAmax/[P450]: one-site binding (Equation 2; tiamulin Equation 3)
T1 construct: 4-histidine tag (C); made in house; host or cells: Escherichia coli
Procedure: The sample cuvette contained 3A5, and the corresponding buffer was in the reference cuvette. The protein buffer consisted of 50 mM sodium Hepes at pH 7.4, 50 mM potassium acetate at pH 7.4, 0.5 mM EDTA, and 20% glycerol. […] The digital spectra were sampled at 1 nm intervals for 1 s. Excel was used to subtract the initial spectrum from subsequent spectra with volume corrections for substrate addition. […] Initial values for Kds and RSRs for each complex are provided. Ligand-free P450 was assigned an RSR of zero. The output includes predicted values for Kds and RSRs, correlations between parameters, and several statistical values for goodness of fit and variances. In addition, graphs of the fit of the data to the model and residuals are produced in several formats.

[2] = tested on: human microsomal testosterone turnover; design: method as in PMID 33137559; conditions: human microsomes; cited from earlier work
[3] = tested on: 3A5; design: method as in PMID 17200113; conditions: type 2 shift, 1 μM P450, biphasic response; cited from earlier work
[4] = tested on: 3A5; design: method as in PMID 27485383; conditions: cited from earlier work
[5] = type 1 spectral shift, one-site binding (Equation 2; tiamulin tight-binding Equation 3), [P450] 0.94–2.03 μM, read-out: Kd

T1 sequence (P20815 with tags, fused parts or gaps limits assumed): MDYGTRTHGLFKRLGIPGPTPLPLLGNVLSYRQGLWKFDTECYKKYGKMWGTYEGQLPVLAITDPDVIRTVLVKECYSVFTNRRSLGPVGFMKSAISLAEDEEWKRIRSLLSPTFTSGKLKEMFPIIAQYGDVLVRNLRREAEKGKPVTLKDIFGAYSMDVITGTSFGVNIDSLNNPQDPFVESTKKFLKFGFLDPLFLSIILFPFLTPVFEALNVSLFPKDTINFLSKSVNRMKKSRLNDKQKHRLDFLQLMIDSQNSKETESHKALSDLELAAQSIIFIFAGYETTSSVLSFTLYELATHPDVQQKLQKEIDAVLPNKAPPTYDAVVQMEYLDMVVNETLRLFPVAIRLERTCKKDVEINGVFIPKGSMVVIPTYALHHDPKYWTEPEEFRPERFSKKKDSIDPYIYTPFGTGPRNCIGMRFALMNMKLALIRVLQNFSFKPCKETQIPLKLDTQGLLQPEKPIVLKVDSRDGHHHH

Row | concentration dependence of type 1 spectral shift (shape of binding curve) [1] | ΔAmax/[P450] ([1]; type 1 spectral shift) | Kd [1, 5] [µM] | SMILES | also measured
1 | hyperbolic | 0.08 ± 0.00 | 6.31 ± 1.02 | C=C[C@]1(C)C[C@@H](OC(=O)CSCCN(CC)CC)[C@]2(C)[C@H](C)CC[C@]3(CCC(=O)[C@H]32)[C@@H](C)[C@@H]1O [Tiamulin] | IC50 [2]: 1.69 µM
2 | hyperbolic | 0.09 ± 0.00 | 16.6 ± 2.4 | C=C[C@]1(C)C[C@@H](OC(=O)CS[C@@H]2C[C@H]3CC[C@@H](C2)N3C)[C@]2(C)[C@H](C)CC[C@]3(CCC(=O)[C@H]32)[C@@H](C)[C@@H]1O [Retapamulin] | –
3 | – | – | – | CC(=O)N1CCN(c2ccc(OCC3COC(Cn4ccnc4)(c4ccc(Cl)cc4Cl)O3)cc2)CC1 (stereo not drawn) [ketoconazole] | Hill coefficient [3]: 1.4
4 | hyperbolic | 0.06 ± 0.00 | 55.1 ± 7.8 | C=C[C@]1(C)C[C@@H](OC(=O)CS[C@@H]2CC[C@@H](N)C[C@H]2O)[C@]2(C)[C@H](C)CC[C@]3(CCC(=O)[C@H]32)[C@@H](C)[C@@H]1O [Lefamulin] | –
5 | hyperbolic | 0.12 ± 0.02 | 32.7 ± 4.3 | C=C[C@]1(C)C[C@@H](OC(=O)CO)[C@]2(C)[C@H](C)CC[C@]3(CCC(=O)[C@H]32)[C@@H](C)[C@@H]1O [Pleuromutilin] | –
6 | – | – | – | CC[C@]1(C)C[C@@H](OC(=O)CSc2n[nH]c(N)n2)[C@]2(C)[C@H](C)CC[C@]3(CCC(=O)[C@H]32)[C@@H](C)[C@@H]1O [Azamulin, (3aS,4R,5S,6R,8R,9R,9aR,10R)-6-ethyl-5-hydroxy-4,6,9,10-tetramethyl-1-oxodecahydro-3a,9-propanocyclopenta[8]annulen-8-yl [(5-amino-1H-1,2,4-triazol-3-yl)sulfanyl]acetate] | Kd ([1]; Dynafit numerical fit, model 4, [P450] 3.73–4.36 μM, 4 replicates, read-out: K1d (binary complex, two-site sequential binding model)): 0.6 µM and 0.65 µM; Kd ([1]; Dynafit numerical fit, model 4, [P450] 3.73–4.36 μM, 4 replicates, read-out: K2d (ternary complex, two-site sequential binding model)): 3.4 µM and 3.41 µM; Kd ([1]; type 1 spectral shift, sigmoidal curve, nominal 4 μM 3A5, n = 4, read-out: Kd (Hill equation fit)): 7.1 ± 0.4 µM; time-dependent inhibition of 3A5 [4]: either very slow or nonexistent
